As usually defined, the IC50 is the midpoint of a concentration-inhibition curve.

The test system of assay [1] is MCF7. Kind of assay: Cytostaticity against MCF-7 cells in the presence of 1 uMolar E2 (estradiol). As to conditions: Homo sapiens. The class given is functional, cell-based.
Assay [2] deals with MCF7. As to the kind of experiment: Cytotoxicity against MCF-7 cells in the absence of 1 uM E2 (estradiol). In kind it is functional, Homo sapiens.
The subject of assay [3] is MCF7. As to the kind of experiment: Cytotoxicity against MCF-7 cells in presence of 1 uM E2 (estradiol). In kind it is functional, Homo sapiens.
The target of assay [4] is Estrogen receptor (Homo sapiens, UniProt Q92731+P03372). Particulars: mvln.
The target of assay [5] is Estrogen receptor (Ovis aries) (UniProt P49885+Q9TU15). As to the kind of experiment: Relative binding affinity for estrogen receptor in lamb uterus cytosol relative to estradiol. The class given is protein assay.

Molecules are shown by their SMILES.

On to `CCCCCC=C(c1ccc(OCCN(CC)CC)cc1)c1ccc(OCCN(CC)CC)cc1`, for which the values for the IC50 in assay [1] and in assay [4] were 700 nM and 6000 nM, respectively. In addition, the Cytotoxicity turned out to be 2.7 µM in assay [2] and 1.3 µM in assay [3].

As for `CCCC/C=C(\c1ccc(O)cc1)c1ccc(OCCN(CC)CC)cc1`, the IC50 in assay [1] was 1600 nM; in assay [4], 1500 nM. Moreover, the values for the Cytotoxicity in assay [2] and in assay [3] were 2.9 µM and 3 µM, respectively.

Consider `CC(C)N(CCOc1ccc(C(=C2CCCCC2)c2ccc(OCCN(C(C)C)C(C)C)cc2)cc1)C(C)C`, for which the results for the IC50 in assay [1] and in assay [4] were 4200 nM and 2100 nM, respectively. Moreover, the Cytotoxicity in assay [2] was found to be 30 µM; in assay [3], 8 µM.

As to `CC(C)N(CCOc1ccc(C(=C2CCCCC2)c2ccc(O)cc2)cc1)C(C)C`, the half-inhibitory concentration (IC50) in assay [1] was found to be 1800 nM; in assay [4], 200 nM. In addition, the Cytotoxicity in assay [2] turned out to be 3.8 µM; in assay [3], 5 µM.

`CCN(CC)CCOc1ccc(/C(=C/Cc2ccccc2)c2ccc(O)cc2)cc1`: the IC50 in assay [1] and in assay [4] was 1700 nM each time. Further, the figures for the Cytotoxicity in assay [2] and in assay [3] were 2.9 µM and 3 µM, respectively.

As for `CCCCCCCCCCCCCC/C=C(\c1ccc(O)cc1)c1ccc(OCCN(CC)CC)cc1`, the half-maximal inhibitory concentration (IC50) in assay [1] amounted to 8000 nM; in assay [4], 9500 nM. Also, the Cytotoxicity in assay [2] and in assay [3] was 30 µM in each case.

As to `CCCCC/C=C(\c1ccc(O)cc1)c1ccc(OCCN(C)C)cc1`, the IC50 in assay [1] was 1700 nM; in assay [4], 1800 nM. In addition, the figures for the Cytotoxicity in assay [2] and in assay [3] were 2.9 µM and 3 µM, respectively.

Regarding `CCCCCCCC/C=C(/c1ccc(O)cc1)c1ccc(OCCN(CC)CC)cc1`, the IC50 worked out at 1700 nM in assay [1] and 3500 nM in assay [4]. Further, the Cytotoxicity in assay [2] worked out at 5.1 µM; in assay [3], 2.9 µM.

On to `CCCCC/C=C(\c1ccc(O)cc1)c1ccc(OCCN2CCCC2)cc1`, for which the IC50 in assay [1] turned out to be 1600 nM; in assay [4] it was 3300 nM. For the same molecule, the Cytotoxicity in assay [2] and in assay [3] was 2.9 µM throughout.

On to `CCCCC/C=C(/c1ccc(O)cc1)c1ccc(OCCN(C)C)cc1`, for which the IC50 in assay [1] amounted to 2400 nM; in assay [4], 1500 nM. For the same molecule, the Cytotoxicity in assay [2] worked out at 8.5 µM; in assay [3], 9.3 µM.

As for `CCN(CC)CCOc1ccc(/C(=C\C(C)C)c2ccc(O)cc2)cc1`, the IC50 was determined as 2400 nM in assay [1] and 500 nM in assay [4]. In addition, the Cytotoxicity in assay [2] was found to be 9.2 µM; in assay [3], 9.4 µM.

Take `CC/C(=C(\c1ccc(O)cc1)c1ccc(OCCN(C)C)cc1)c1ccccc1`: the IC50 in assay [1] was 8000 nM. In addition, the Cytotoxicity was 6 µM in assay [2] and 9.4 µM in assay [3].

For the molecule `CCCCCC/C=C(\c1ccc(O)cc1)c1ccc(OCCN(CC)CC)cc1`, the results for the IC50 in assay [1] and in assay [4] were 1200 nM and 2500 nM, respectively. Further, the Cytotoxicity is 2.8 µM in assay [2] and 3.8 µM in assay [3].

Regarding `CCCCCC/C=C(/c1ccc(O)cc1)c1ccc(OCCN(CC)CC)cc1`, the IC50 in assay [1] is 1600 nM; in assay [4] it was 1900 nM. Moreover, the Cytotoxicity worked out at 2.9 µM in assay [2] and 3 µM in assay [3].

In the case of `CC(C)C=C(c1ccc(OCCN(C(C)C)C(C)C)cc1)c1ccc(OCCN(C(C)C)C(C)C)cc1`, the figures for the IC50 in assay [1] and in assay [4] were 1600 nM and 3100 nM, respectively. In addition, the Cytotoxicity came out at 3.6 µM in assay [2] and 4.5 µM in assay [3].

In the case of `CCCC/C(CC)=C(/c1ccc(O)cc1)c1ccc(OCCN(CC)CC)cc1.CCCC/C(CC)=C(\c1ccc(O)cc1)c1ccc(OCCN(CC)CC)cc1`, the IC50 in assay [1] stood at 1000 nM; in assay [4] it was 150 nM. The Cytotoxicity in assay [2] and in assay [3] was 2.8 µM each time.

Regarding `CCCCCCCC/C=C(\c1ccc(O)cc1)c1ccc(OCCN(CC)CC)cc1`, the IC50 in assay [1] worked out at 1600 nM; in assay [4] it was 4700 nM. The Cytotoxicity in assay [2] was found to be 3.6 µM; in assay [3], 3 µM.

Consider `CCN(CC)CCOc1ccc(/C(=C\Cc2ccccc2)c2ccc(O)cc2)cc1`, for which the results for the IC50 in assay [1] and in assay [4] were 1800 nM and 1300 nM, respectively. The Cytotoxicity in assay [2] was found to be 3.2 µM; in assay [3], 4.3 µM.

For the molecule `CC/C(=C(\c1ccccc1)c1ccc(OCCN(C)C)cc1)c1ccccc1` [TAMOXIFEN], the IC50 in assay [1] worked out at 8000 nM. Also, the Cytotoxicity in assay [2] worked out at 9.8 µM; in assay [3] it was 13 µM.

Turning to `CCCCC/C=C(\c1ccc(O)cc1)c1ccc(OCCN(CC)CC)cc1`, the IC50 in assay [1] is 1100 nM; in assay [4], 3200 nM. Also, the Cytotoxicity in assay [2] came out at 2.7 µM; in assay [3], 3.2 µM. For the same molecule, the relative binding affinity (RBA) in assay [5] is 0.1.

`CCN(CC)CCOc1ccc(/C(=C/C(C)C)c2ccc(O)cc2)cc1`: the IC50 in assay [1] and in assay [4] was 1700 nM in each case. The values for the Cytotoxicity in assay [2] and in assay [3] were 8.4 µM and 8.8 µM, respectively.

On to `CCCC/C=C(/c1ccc(O)cc1)c1ccc(OCCN(CC)CC)cc1`, for which the IC50 in assay [1] was determined as 1700 nM; in assay [4], 500 nM. Moreover, the Cytotoxicity in assay [2] was 4.4 µM; in assay [3] it was 5.2 µM.

Regarding `CCCCCCCCCCCCCC/C=C(/c1ccc(O)cc1)c1ccc(OCCN(CC)CC)cc1`, the IC50 in assay [1] is 7900 nM; in assay [4], 8000 nM. The Cytotoxicity in assay [2] and in assay [3] was 30 µM throughout.

Take `CCCCC/C=C(/c1ccc(O)cc1)c1ccc(OCCN(CC)CC)cc1`: the half-maximal inhibitory concentration (IC50) in assay [1] was found to be 1600 nM; in assay [4] it was 900 nM. The Cytotoxicity in assay [2] was 2.9 µM; in assay [3], 3.2 µM.

The values above are taken from ChEMBL document CHEMBL1129985, “Cytotoxicity and antiestrogenicity of a novel series of basic diphenylethylenes” (J Med Chem, 1997).
